Test results: ChEMBL document CHEMBL5360643, “Cyclic Peptides from the Opportunistic Pathogen Basidiobolus meristosporus” (J Nat Prod, 2023)
Converted amounts (≈) assume the structure as drawn.

Columns and labels:
[1] = Cytotoxicity against human HEK293T cells assessed as reduction in cell viability incubated for 24 hrs by CCK-8 assay; format: toxicity, cell-based, HEK-293T
[2] = Cytotoxicity against human HepG2 cells assessed as reduction in cell viability incubated for 24 hrs by CCK-8 assay; format: toxicity, cell-based
[3] = Cytotoxicity against mouse RAW264.7 cells assessed as reduction in cell viability incubated for 24 hrs by CCK-8 assay; format: toxicity, cell-based

SMILES | IC50 at 24 h [1] [µg/mL] | IC50 at 24 h [2] [µg/mL] | IC50 at 24 h [3] [µg/mL]
CC(C)C[C@H]1NC(=O)[C@H](Cc2ccccc2)NC(=O)[C@H](Cc2c[nH]c3ccccc23)NC(=O)[C@@H](C(C)C)NC(=O)[C@H](C(C)C)NC(=O)[C@@H](C)NC1=O | 150 (≈ 210 µM) | 125 (≈ 174 µM) | 7.7 (≈ 10.8 µM)
CC[C@H](C)[C@@H]1NC(=O)[C@H](Cc2ccccc2)NC(=O)[C@H](Cc2c[nH]c3ccccc23)NC(=O)[C@@H]([C@@H](C)O)NC(=O)[C@@H](Cc2ccc(O)cc2)NC1=O | 6 (≈ 8.44 µM) | 29.6 (≈ 41.6 µM) | 17.2 (≈ 24.2 µM)
COc1cc([C@@H]2c3cc4c(cc3[C@H](O)[C@H]3COC(=O)[C@H]23)OCO4)cc(OC)c1OC [PODOFILOX] | 20 (≈ 48.3 µM) | 19.6 (≈ 47.3 µM) | 61.3 (≈ 148 µM)
CC[C@H](C)[C@@H]1NC(=O)[C@H](Cc2ccccc2)NC(=O)[C@@H]2C[C@]3(O)c4ccccc4N[C@H]3N2C(=O)[C@H]([C@@H](C)O)NC(=O)[C@@H](Cc2ccc(O)cc2)NC1=O | 148 (≈ 203 µM) | 110 (≈ 151 µM) | 182 (≈ 251 µM)
